Here are results for eight compounds from ChEMBL document CHEMBL1201862, “PubChem BioAssay data set” (2004).

Structures are written as SMILES. Active and inactive are the calls of the source.

A short description of assay [1]: Counterscreen for IDE inhibitors: Luminescence-based cell-based high throughput dose response assay to identify compounds that are cytotoxic to HEK cells. [Related pubchem assays: 434962 (Primary screen (IDE inhibitors in singlicate)), 449730 (Counterscreen (Cytotoxicity in triplicate)), 435028 (Confirmation (IDE inhibitors in triplicate)) …. The class given is functional. The settings on record: HEK293.

Assay [2] concerns the target T1, RNA-binding protein pos-1 (Caenorhabditis elegans, UniProt G5EF15).
T1 sequence (G5EF15 whole entry): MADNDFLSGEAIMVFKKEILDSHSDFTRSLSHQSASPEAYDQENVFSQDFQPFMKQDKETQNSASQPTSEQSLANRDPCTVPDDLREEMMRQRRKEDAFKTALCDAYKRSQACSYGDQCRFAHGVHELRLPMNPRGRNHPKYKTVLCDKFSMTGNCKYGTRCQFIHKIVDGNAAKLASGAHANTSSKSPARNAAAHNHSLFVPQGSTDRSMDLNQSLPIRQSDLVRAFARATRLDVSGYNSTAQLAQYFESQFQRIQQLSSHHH
Put plainly: disruptors of C. elegans POS-1 RNA interaction – biochemical, fluorescence polarization, dose response (AID 1964).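 Note: purified POS-1 fused to maltose binding protein made in E. coli; potency of compounds blocking POS-1 binding to fluorescent RNA.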

The target of a further assay is T2, Insulin-degrading enzyme (Homo sapiens, UniProt P14735).
T2 sequence (P14735 whole entry): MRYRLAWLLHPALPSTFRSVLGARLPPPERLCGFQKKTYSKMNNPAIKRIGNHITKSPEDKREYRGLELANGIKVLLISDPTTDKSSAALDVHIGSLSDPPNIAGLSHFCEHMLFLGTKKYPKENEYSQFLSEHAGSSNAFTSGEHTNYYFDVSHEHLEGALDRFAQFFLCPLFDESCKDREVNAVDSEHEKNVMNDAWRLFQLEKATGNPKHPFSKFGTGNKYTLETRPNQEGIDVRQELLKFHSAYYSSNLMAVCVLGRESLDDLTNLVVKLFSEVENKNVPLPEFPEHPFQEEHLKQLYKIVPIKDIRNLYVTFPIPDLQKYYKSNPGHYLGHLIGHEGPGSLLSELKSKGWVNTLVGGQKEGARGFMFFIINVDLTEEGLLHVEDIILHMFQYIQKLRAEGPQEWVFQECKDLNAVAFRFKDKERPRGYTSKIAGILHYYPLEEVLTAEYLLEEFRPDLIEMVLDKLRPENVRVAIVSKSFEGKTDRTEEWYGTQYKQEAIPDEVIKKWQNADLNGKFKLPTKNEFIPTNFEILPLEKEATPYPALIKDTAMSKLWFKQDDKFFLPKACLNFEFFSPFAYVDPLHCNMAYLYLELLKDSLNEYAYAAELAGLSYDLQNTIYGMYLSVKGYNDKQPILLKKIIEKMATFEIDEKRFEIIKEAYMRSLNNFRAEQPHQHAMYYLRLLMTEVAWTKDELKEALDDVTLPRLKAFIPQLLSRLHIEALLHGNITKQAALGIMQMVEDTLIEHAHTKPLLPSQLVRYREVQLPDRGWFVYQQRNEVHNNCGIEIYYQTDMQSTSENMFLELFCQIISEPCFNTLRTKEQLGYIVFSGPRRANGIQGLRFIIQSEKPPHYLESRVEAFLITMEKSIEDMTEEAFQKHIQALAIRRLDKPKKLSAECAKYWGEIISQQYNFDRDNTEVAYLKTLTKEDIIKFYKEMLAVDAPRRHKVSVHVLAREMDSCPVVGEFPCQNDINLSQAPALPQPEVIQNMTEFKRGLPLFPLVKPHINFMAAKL
Put plainly: Dose Response: Fluorescence polarization-based cell-based high throughput dose response assay for inhibitors of insulin-degrading enzyme (IDE). [Related pubchem assays: 434962 (Primary screen (IDE inhibitors in singlicate)), 449730 (Counterscreen (Cytotoxicity in triplicate)), 435028 (Confirmation (IDE inhibitors in triplicate)), 434984 (Summary …. The assay is classed as functional. In general terms: Polarisation of emitted light reports the rotation of a fluorescent probe.

A further assay deals with HEK293. Put plainly: Fluorescence-based counterscreen for potentiators or agonists of NPY-Y2: cell-based high-throughput dose response assay to identify inhibitors of cyclic nucleotide gated ion channel (CNGC) activity. In this assay, the parental HEK293 cell line transfected with a cyclic-nucleotide gated ion channel (CNGC)-based cAMP sensor is used to measure inhibition of isoproterenol-induced CNGC activity by test compound. The class given is functional. The settings on record: Homo sapiens. A general note: The purpose of a counterscreen is to sort out artefacts and off-target activity.

Assay [3] deals with T3, Neuropeptide Y receptor type 2 (Homo sapiens, UniProt P49146).
T3 sequence (P49146 whole entry): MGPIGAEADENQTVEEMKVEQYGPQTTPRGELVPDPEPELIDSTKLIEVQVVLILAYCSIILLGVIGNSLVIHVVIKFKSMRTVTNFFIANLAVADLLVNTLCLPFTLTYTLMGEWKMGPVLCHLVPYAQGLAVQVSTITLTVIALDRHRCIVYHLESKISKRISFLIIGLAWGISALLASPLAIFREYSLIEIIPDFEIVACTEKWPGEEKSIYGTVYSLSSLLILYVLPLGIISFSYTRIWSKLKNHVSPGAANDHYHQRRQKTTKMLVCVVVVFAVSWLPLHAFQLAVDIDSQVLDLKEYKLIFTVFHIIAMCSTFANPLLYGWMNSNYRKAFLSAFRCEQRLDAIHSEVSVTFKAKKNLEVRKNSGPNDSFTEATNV
Briefly: Fluorescence-based cell-based high-throughput dose response assay for agonists of NPY-Y2. [Related pubchem assays: 1703 (Screening assay (CNGC inhibitors).), 1359 (Screening assay (NPY-Y2 potentiators or agonists).), 1304 (Screening assay (NPY-Y1 potentiators or agonists).), 1710 (Screening assay (NPY-Y2 agonists).), 1791 (Summary AID.)]. The assay is classed as functional.

For assay [4], the target named is T4, Neuropeptide Y receptor type 1 (Homo sapiens, UniProt P25929).
T4 sequence (P25929 whole entry): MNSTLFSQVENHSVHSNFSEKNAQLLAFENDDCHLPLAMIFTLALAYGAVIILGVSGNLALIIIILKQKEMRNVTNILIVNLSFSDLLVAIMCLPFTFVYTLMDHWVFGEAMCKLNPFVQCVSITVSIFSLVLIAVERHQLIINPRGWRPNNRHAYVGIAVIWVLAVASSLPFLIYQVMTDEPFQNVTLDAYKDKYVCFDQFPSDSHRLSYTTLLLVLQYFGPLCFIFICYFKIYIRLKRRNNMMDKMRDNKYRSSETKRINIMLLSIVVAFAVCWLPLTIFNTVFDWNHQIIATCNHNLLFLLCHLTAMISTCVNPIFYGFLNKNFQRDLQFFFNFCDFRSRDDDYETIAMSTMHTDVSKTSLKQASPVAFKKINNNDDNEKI
Briefly: Fluorescence-based counterscreen for agonists of NPY-Y2: cell-based high-throughput dose response assay for agonists of NPY-Y1. The class given is functional.

For assay [5], the target named is Acyl-homoserine lactone acylase PvdQ (Pseudomonas aeruginosa (strain LESB58), UniProt Q9I194). Briefly: PvdQ acylase enzyme activity blockers – biochemical, fluorescence, plate reader and imaging, cherry-picks, dose response (AID 493231).
Sequence of Acyl-homoserine lactone acylase PvdQ (Q9I194 24-193 limits assumed): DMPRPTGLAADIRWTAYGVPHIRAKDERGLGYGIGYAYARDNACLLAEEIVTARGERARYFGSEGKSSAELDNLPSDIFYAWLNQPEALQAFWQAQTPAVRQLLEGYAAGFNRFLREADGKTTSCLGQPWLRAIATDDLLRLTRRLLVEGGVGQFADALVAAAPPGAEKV
Sequence of Acyl-homoserine lactone acylase PvdQ (Q9I194 217-762 limits assumed): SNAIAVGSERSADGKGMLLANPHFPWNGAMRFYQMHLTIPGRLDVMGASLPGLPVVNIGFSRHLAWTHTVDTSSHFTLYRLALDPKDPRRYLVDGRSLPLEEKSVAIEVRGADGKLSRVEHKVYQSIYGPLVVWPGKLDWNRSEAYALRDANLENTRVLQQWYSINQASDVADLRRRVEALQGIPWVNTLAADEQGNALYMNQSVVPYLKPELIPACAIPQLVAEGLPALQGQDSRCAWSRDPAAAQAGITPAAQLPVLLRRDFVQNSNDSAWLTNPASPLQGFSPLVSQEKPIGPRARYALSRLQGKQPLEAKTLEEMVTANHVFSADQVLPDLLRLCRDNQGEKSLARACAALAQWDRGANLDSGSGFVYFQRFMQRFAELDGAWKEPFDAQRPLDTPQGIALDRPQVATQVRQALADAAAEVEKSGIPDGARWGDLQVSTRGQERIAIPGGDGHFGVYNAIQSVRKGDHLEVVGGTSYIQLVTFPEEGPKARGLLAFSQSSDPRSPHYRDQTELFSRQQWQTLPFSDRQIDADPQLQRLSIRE
A further assay addresses NS3 (Hepatitis C virus, UniProt A3EZJ3). Put plainly: PubChem AID 2173. Further details: species or system Hepacivirus hominis.
For assay [6], the system named is Vero. Briefly: cells. The class given is functional, cell-based. As to conditions: Chlorocebus sabaeus.
The subject of assay [7] is Vero. Put plainly: cells. The class given is functional. As to conditions: Chlorocebus sabaeus.
The target of assay [8] is Induced myeloid leukemia cell differentiation protein Mcl-1 (Homo sapiens, UniProt Q07820). The class given is functional.
Sequence of Induced myeloid leukemia cell differentiation protein Mcl-1 (Q07820 whole entry): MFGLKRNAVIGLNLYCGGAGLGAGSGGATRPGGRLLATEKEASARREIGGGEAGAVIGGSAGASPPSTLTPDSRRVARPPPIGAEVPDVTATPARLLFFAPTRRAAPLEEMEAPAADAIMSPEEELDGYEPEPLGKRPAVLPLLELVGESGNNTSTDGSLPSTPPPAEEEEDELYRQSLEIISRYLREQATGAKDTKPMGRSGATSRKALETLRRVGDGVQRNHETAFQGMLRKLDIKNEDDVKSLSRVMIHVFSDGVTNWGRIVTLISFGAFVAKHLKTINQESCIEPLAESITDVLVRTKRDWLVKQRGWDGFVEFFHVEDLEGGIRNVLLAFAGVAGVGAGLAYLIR
A short description of assay [9]: HEK-293T cell viability reduction – luminescence, B-cell screen hits, cytotoxicity control for BCR NF-kB inhibitor project, dose response (AID 489021).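 Note: HEK-293T cells carrying an NF-kB luciferase reporter; cells exposed to compound for about 14 hours before viability readout.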 The assay is classed as functional, cell-based.
A short description of assay [10]: A cytotoxicity screen of small molecule inhibitors of the PhoP region in Salmonella typhi identified in the primary screen. [Related pubchem assays: 1850, 1864, 1985 ]. The assay is classed as functional.
For assay [11], the target named is Lysosomal acid glucosylceramidase (Homo sapiens, UniProt P04062). Briefly: Dose response cell-based high throughput screening assay to identify enhancers of beta-glucosidase activity. [Related pubchem assays: 784 ]. The class given is functional.
Sequence of Lysosomal acid glucosylceramidase (P04062 whole entry): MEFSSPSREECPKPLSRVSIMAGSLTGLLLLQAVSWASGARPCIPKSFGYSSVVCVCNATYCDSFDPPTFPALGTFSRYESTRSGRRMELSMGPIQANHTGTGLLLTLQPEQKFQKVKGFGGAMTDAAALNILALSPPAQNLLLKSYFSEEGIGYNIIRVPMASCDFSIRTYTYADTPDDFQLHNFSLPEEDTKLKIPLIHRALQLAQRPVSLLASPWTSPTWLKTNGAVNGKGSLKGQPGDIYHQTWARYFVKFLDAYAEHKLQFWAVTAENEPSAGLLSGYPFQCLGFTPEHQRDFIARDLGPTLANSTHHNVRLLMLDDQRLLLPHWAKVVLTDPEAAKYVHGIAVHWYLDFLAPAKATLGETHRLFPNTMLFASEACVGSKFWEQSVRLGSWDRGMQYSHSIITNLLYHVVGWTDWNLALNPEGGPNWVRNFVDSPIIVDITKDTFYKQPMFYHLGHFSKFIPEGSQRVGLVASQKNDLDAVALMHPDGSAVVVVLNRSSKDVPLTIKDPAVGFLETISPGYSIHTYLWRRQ

Sequence of NS3 (A3EZJ3 whole entry): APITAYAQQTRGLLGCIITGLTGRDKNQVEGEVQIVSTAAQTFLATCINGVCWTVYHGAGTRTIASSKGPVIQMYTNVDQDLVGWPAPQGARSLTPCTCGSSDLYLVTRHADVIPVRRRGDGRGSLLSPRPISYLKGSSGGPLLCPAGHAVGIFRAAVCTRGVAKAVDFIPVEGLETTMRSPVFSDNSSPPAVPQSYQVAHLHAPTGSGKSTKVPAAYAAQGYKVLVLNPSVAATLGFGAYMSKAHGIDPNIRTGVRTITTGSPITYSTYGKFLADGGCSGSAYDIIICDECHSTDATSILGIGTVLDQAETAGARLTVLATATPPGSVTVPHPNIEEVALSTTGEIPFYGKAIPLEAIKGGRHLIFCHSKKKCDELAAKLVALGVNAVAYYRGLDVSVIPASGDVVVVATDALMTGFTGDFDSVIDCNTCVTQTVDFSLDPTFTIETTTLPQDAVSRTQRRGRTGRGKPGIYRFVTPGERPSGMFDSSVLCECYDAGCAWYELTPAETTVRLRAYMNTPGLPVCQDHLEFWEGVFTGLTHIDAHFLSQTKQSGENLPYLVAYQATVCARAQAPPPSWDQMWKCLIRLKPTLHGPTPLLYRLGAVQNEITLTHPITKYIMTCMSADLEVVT

Usually IC50 stands for the midpoint of a concentration-inhibition curve. The term EC50 denotes the concentration needed to bring the measured effect to its halfway point. In the case of `CCN(CC)c1ccc(/C=C2\C(=O)NC(=S)N(c3ccc(OC)cc3OC)C2=O)o1`, the results for the IC50 (in assay [1]; at Insulin-degrading enzyme) were > 55.6 µM (not active) and > 6.21 µM (active), respectively. The EC50 in assay [2] was > 150 µM (inconclusive).
Regarding `N#Cc1c(Cl)nsc1NN`, the figures for the EC50 (in the assay on HEK293; in [3]; in [4]) were 9.97 µM (active), 9.25 µM (active) and 7.05 µM (active), respectively.
By AC50 is commonly meant the midpoint of the concentration-response curve, whichever way the signal moves. As for `CCOC(=O)/C(C#N)=C/c1ccc(SC)cc1`, in [5], the AC50 was 18.1 µM (active).
The term CC50 denotes the concentration at which the toxic effect on the cells reaches its halfway point. For `CNc1ccc(Br)cc(C(=O)/C=C/c2cccc(OC)c2)c1=O`, the IC50 is 8.97 µM (active) at NS3, 7.82 µM (active) in the assay on Vero [6] and 1.92 µM (active) in assay [8]. In addition, the CC50 in the assay with Vero [7] was 12.7 µM (active).
For the compound `O=C(C1CCC1)N1CCN(c2ccc(Cl)cc2)CC1`, the AC50 in assay [5] is 13.5 µM (active).
`Cc1cc(C)c2nc(NC(=O)C3CSC4(C)CCC(=O)N34)sc2c1` (stereo not given): the IC50 in assay [9] is > 80 µM (inactive).
For the compound `O=C(N/N=C/c1cccs1)c1ccc2[nH]cnc2c1`, the EC50 in assay [10] was > 50 µM (active).
Turning to `CCOc1ccc(-c2noc(-c3ccncc3)n2)cc1OCC`, the EC50 in assay [11] is given as > 10 µM (not active).
